# Source: patent publication US11331354B2, “Fecal virome and therapeutic efficacy of fecal microbiota transplantation” (priority 2018, dated 2022)
# Legend:
# [1] = test system: Clostridium difficile infection; assay: Randomised controlled trial substudy of FMT versus vancomycin in patients with CDI: clinical outcome (symptoms, stool C. difficile toxin); assay type: in vivo, human
# Protocol: The current study was a substudy from a randomised controlled trial (RCT) of FMT versus vancomycin for patients with CDI. Consecutive CDI subjects enrolled into this RCT were invited to participate in a substudy of assessment of fecal microbiota. Patients were included if they had three or more loose or watery stools per day for at least two consecutive days, or eight or more soft or loose stools in 48 hours, and a positive stool test for C. difficile based on a two-step testing algorithm in the hospital, a positive GDH (glutamate dehydrogenase) screening test followed by a positive PCR test of C. difficile. A total of 24 subjects with CDI and 20 healthy household controls were recruited, and stool samples at baseline were obtained for analyses of virome and bacterial microbiome. Among them, 14 CDI subjects consented to have stool samples collected serially after treatment for microbiome analysis. Nine CDI subjects were treated with FMT and five were treated with vancomycin, and they were followed up at baseline and weeks 2, 4, 10 and 16 after treatment (FIG. 6). One patient FMT6 had recurrent CDI. This patient had five previous episodes of CDI prior to FMT. Subjects in the FMT group received 5 days of vancomycin followed by donor-infused stool via nasojejunal route, and those who had standard therapy (STD) received oral vancomycin 500 mg four times per day for 10 days. A computer-generated randomisation schedule was used to assign patients to the treatment sequences. All patients kept a stool diary and were questioned about stool frequency and consistency and medication use.
# Treatment response was defined as an absence of diarrhoea or persistent diarrhoea that could be explained by other causes with a negative stool test for C. difficile toxin, while relapse was defined as diarrhoea with a positive stool test for C. difficile toxin. Treatment cure is defined as symptom resolution and a negative Clostridium difficile toxin in stool until the last follow-up (last follow-up was referred to as the last stool collection time point, as shown in FIG. 6). […] CDI recipients FMT8 and FMT9 shared the same donor, and this donor was termed ‘D8’. None of the patients had received antibiotics or proton pump inhibitors after FMT.
# 1. C. difficile infection was defined as diarrhea (≥3 soft, loose or watery stools per day for at least 2 consecutive days or ≥8 soft or loose stools in 48 hours) and a positive stool test for C. difficile toxin; and
# Family members provided donor stool for subjects randomised to FMT arm. Cure after FMT or vancomycin therapy was defined as symptom resolution and negative Clostridium difficile toxin in stool at last follow-up by PCR assay. Relapse was defined as diarrhea with a positive stool test for C. difficile toxin.
# In subjects who received FMT, a nasoduodenal tube was inserted with radiology guidance. Donor feces was diluted with 500 ml of sterile saline (0.9%), blended and the supernatant was strained with filter paper and poured in a sterile bottle. Within 6 hours after collection of feces by the donor, the solution was infused through a nasoduodenal tube (2 to 3 minutes per 50 ml). The tube was removed 30 minutes after the infusion, and patients were monitored for 2 hours. In subjects with received FMT, a minimum of 50 g of donor stool was collected on the same day of infusion and used within 6 hours of collection.
# [2] = test system: enteric virome (Caudovirales, Microviridae, Anelloviridae); assay: Ultra-deep metagenomic sequencing of virus-like particle (VLP) preparations from stool: enteric virome abundance, diversity, richness, donor-derived contigs; assay type: in vivo, human
# Protocol: VLPs were enriched from pulverised human stool, using a protocol according to previously described methods.^11 17 VLP DNAs were quantified (NanoDrop), and 1 μg of DNA was randomly fragmented by ultrasonication (Covaris) followed by library construction. The qualified libraries were amplified on cBot to generate the cluster on the flow cell (TruSeq PE Cluster Kit V3-cBot-HS, Illumina). The amplified libraries were sequenced paired end on the HiSeq 2000 System (TruSeq SBS KIT-HS V3, Illumina) (BGI, Shenzhen, China; standard 2×150 bp run), generating 20-60 million raw sequences (5-8 G raw data) per sample (sequence statistics in Table 3). Sequence processing and quality control, de novo contig assembly and taxonomy annotation were performed.
# To estimate contig abundance and calculate sequence diversity, all reads were aligned to the resulting contigs using Bowtie2 (V. 2.2.9).^18 The mapped sequence counts, contig lengths and total sequence counts were used to normalise the sequence counts and represent the RPKM (reads per kilobase per million) of each sample to the contigs. These values were used to generate an operational taxonomic unit (OTU) relative abundance table, which was annotated with the taxonomy described above. The virome abundance data were imported into R 3.2.3. Richness, diversity and rarefaction calculation were performed using the estimated richness function of the phyloseq package. Diversity and richness plots were generated in GraphPad Prism (V. 6.0). Spearman correlations and their significance were calculated using the cor and cor.test functions in R, respectively. […] Correlation plots were generated using the corrplot R package. Heat maps were generated using the pheatmap R package. LEfSe linear discriminant analysis and multivariate analysis were performed.
# To establish the presence of a species or a contig within a sample, the RPKM of a contig or a species is set to be >2 (a stringent criteria), so as to rule out the false-positive finding) for the contig or the species to be assured as present within a sample. In samples after FMT, if a contig or a species was not present in the recipient baseline sample but present in the corresponding donor baseline sample and in the recipient post-FMT sample, the contig or species was defined as ‘donor-derived’; if a contig or a species was not present in the corresponding donor baseline sample but detected both in the recipient baseline sample and in the recipient post-FMT sample, the contig or the species was defined as ‘recipient-exclusive’, if a contig or a species was present across the recipient baseline sample, the recipient post-FMT sample and the corresponding donor baseline sample, the contig or the species was defined as ‘donor recipient coexisted.’ To determine the abundance alteration of Caudovirales species after FMT, the species' relative abundance (RA) fold change was defined as fc=log 2(post-FMT last follow-up RA/pre-FMT baseline RA).
# Approximately 200 mg of stool was suspended in 400 μl saline-magnesium buffer (0.1 M NaCl, 0.008 M MgSO4-7H2O, 0.002% gelatin, 0.05 M Tris pH7.5) by vortexing for 10 min. Stool suspensions were then cleared by centrifugation at 2,000×g to remove debris and cells. Clarified suspensions were passed through one […] followed by two […] filters to remove residual host and bacterial cells. […]
smiles,measurement,setting,value
CN[C@H](CC(C)C)C(=O)N[C@H]1C(=O)N[C@@H](CC(N)=O)C(=O)N[C@H]2C(=O)N[C@H]3C(=O)N[C@H](C(=O)N[C@H](C(=O)O)c4cc(O)cc(O)c4-c4cc3ccc4O)[C@H](O)c3ccc(c(Cl)c3)Oc3cc2cc(c3O[C@@H]2O[C@H](CO)[C@@H](O)[C@H](O)[C@H]2O[C@H]2C[C@](C)(N)[C@H](O)[C@H](C)O2)Oc2ccc(cc2Cl)[C@H]1O [vancomycin],subjects cured of CDI (responders),"[1]; median follow-up of 16 weeks, nine FMT subjects, five vancomycin patients",three of the five
same,Recurrence at week,[1]; subject STD1,at week 12
same,Outcome (till last follow-up),"[1]; subject STD1, severe CDI, follow-up 20 weeks",Recurrence
same,Recurrence at week,[1]; subject STD2,at week 7
same,Outcome (till last follow-up),"[1]; subject STD2, moderate CDI, follow-up 7 weeks",Recurrence
same,Outcome (till last follow-up),"[1]; subject STD3, severe CDI, follow-up 14 weeks",Cured
same,Outcome (till last follow-up),"[1]; subject STD4, severe CDI, follow-up 17 weeks",Cured
same,Outcome (till last follow-up),"[1]; subject STD5, moderate CDI, follow-up 26 weeks",Cured
same,virome structure over time,[2]; CDI subjects who did not respond to vancomycin,marked oscillation
same,virome structure over time,[2]; CDI subjects who responded to vancomycin,not significantly altered
same,change in Caudovirales abundance after treatment,"[2]; stool of CDI subjects, pre- versus post-treatment",increased
same,Caudovirales diversity and richness as well as bacterial diversity and richness over the course of treatment,[2]; subjects who did not respond to vancomycin (STD1 and STD2),substantial fluctuation
same,change in Caudovirales diversity or richness,"[2]; subjects who responded to vancomycin (STD3, STD4, STD5)",no significant change
